Results on 1 compound are retold here after PMC7176092, “Development of the first in vivo GPR17 ligand through an iterative drug discovery pipeline: A novel disease-modifying strategy for multiple sclerosis” (PLoS ONE, 2020).

Molecules are shown by their SMILES. Where two headings read alike, the source gives them in different places. Marks after values point to notes of the source that are not given here.

One experiment concerns the target T1, M2 (Homo sapiens, UniProt P08172).
T1 construct: Eurofins Cerep (external service)
T1 sequence (P08172 1-466): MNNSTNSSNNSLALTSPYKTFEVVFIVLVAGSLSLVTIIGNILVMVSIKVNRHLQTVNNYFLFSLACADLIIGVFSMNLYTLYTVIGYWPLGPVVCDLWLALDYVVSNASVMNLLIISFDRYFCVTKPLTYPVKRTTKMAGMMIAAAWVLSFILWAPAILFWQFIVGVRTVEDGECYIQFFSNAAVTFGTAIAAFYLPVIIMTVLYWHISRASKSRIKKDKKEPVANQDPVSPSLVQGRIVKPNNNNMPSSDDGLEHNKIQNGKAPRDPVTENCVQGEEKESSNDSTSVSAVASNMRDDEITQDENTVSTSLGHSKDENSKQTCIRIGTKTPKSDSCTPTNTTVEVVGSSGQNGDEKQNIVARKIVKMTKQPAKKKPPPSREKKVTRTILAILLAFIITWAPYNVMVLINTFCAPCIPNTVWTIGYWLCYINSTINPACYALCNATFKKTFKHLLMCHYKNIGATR
Description: Binding assay M2. To be noted: 100 nM.

Another experiment deals with T2, human GPR17 (Homo sapiens, UniProt Q13304).
T2 construct: HA; expressed in transfected cells
T2 sequence (Q13304 29-367): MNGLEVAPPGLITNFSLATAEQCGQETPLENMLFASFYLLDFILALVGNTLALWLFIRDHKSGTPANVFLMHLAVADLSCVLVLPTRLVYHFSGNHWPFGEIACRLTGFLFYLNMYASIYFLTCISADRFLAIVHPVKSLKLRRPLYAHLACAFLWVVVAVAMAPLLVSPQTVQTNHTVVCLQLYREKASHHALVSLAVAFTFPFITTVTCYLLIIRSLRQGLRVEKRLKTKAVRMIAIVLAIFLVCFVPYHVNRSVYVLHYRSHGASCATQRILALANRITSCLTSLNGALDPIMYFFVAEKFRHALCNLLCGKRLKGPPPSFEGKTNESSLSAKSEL
Description: [35S]GTPγS binding assay. The class given is biochemical. As for the experimental part:
[^35S]GTPγS binding assays were carried out as previously described. Briefly, control and astrocytoma 1321N1 cells stably transfected with human pcDNA3.1 (control cells) and human HA-tag GPR17 were homogenized in 5 mM Tris/HCl and 2 mM EDTA (pH 7.4) and centrifuged at 48,000g for 15 min at 4°C. The resulting pellets were washed in 50 mM Tris/HCl and 10 mM MgCl2 (pH 7.4). After protein dosage, aliquots of cell membranes were incubated with increasing concentrations of each investigated ligand (1 pM–10 μM) and GTPγS binding to activated G-proteins was quantified as previously described. Compounds were purchased from two external providers, i.e., Ambinter (Ambinter c/o Greenpharma, Orléans, France http://www.ambinter.com/) and Asinex (http://www.asinex.com/).
For analysis and graphic presentation of [^35S]GTPγS binding data, a nonlinear multipurpose curve fitting computer program (Graph-Pad Prism) was used. All data are presented as the mean ± SEM of three different experiments.
The selected 15 molecules were evaluated in our in-house [^35S]GTPγS functional assay in membranes from cells transfected with human GPR17. […] Moreover, this assay has been already successfully used in the past to measure the ability of both endogenous and novel synthetic compounds to activate GPR17 [25, 31]. All tested molecules were able to potently activate GPR17 with nanomolar/sub-nanomolar affinities. Concentration-response curves obtained for each selected compound are reported in S4 Fig.
(In general: GTPγS is a poorly hydrolysed GTP analogue; its binding reports G protein activation.)

In the next experiment the test system is OPC-DRG co-cultures. Description: In vitro myelination assay. The class given is cell-based, rat OPCs, mouse DRG. The following applies: 10 nM; CTRL 100%; mean ± S.E.M. As for the experimental part:
OPC-DRG co-cultures were prepared according to a previously described protocol.
DRG explants from E14.5 mice were directly put in culture after being plucked off from embryo spinal cords. Then, they were grown in Neurobasal medium (Life Technologies) in presence of 100 ng/ml nerve growth factor (NGF, Sigma-Aldrich), and in presence of 10 μM fluorodeoxyuridine (FUDR, Sigma-Aldrich) in order to remove all non-neuronal cells.
Purified primary rat OPCs were obtained from mixed glial cultures by orbital shaking for 3 hours. […]
At day 15, OPC/DRG co-cultures treated with either the selected compounds or the vehicle were fixed and treated with rat anti-MBP (Millipore), mouse anti-SMI 31 and mouse anti-SMI 32 (Cell Signaling), followed by the secondary goat anti-rat/-mouse antibody, conjugated to Alexa Fluor 555 or Alexa Fluor 488 (Life Technologies). The quantification of myelin segments was performed following a previously described protocol with ZEISS LSM Image Browser by acquiring 6 random fields of 4–5 coverslips for each experimental condition. […] The amount of myelin per axon (myelination index) was calculated as the ratio between the white pixels area and the green pixels area. […]

The target in the next experiment is T3, AT1 (Homo sapiens, UniProt P30556).
T3 construct: Eurofins Cerep (external service)
T3 sequence (P30556 1-359): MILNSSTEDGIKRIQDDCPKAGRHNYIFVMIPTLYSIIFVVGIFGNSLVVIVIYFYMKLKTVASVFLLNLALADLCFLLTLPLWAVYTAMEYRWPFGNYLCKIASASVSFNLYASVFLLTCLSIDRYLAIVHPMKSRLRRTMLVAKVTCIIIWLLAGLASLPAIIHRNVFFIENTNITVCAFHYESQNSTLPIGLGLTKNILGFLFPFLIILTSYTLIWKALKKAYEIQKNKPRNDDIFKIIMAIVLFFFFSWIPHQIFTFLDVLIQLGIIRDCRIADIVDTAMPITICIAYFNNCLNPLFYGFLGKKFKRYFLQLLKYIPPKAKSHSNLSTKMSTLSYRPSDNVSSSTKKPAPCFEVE
As to the kind of experiment: Binding assay AT1. To be noted: 100 nM.

Where [1] appears, read: mean of 2, read-out: % Of control specific binding, Mean.
Where [2] appears, read: read-out: % Inhibition of control specific binding.
Where [3] appears, read: single replicates 1 and 2, 0.1 µM.
[4] abbreviates: single replicates 1 and 2, read-out: % Of control specific binding.

The inhibition is the relative decrease from the control value, in per cent. As usually defined, the EC50 is the concentration giving half of the maximal effect. In the case of `Cc1ccc(-c2nnc(SCC(=O)Nc3nccs3)[nH]2)cc1` [Compound 9], the remaining activity at 0.1 µM at M2 (setting [1]) was determined as 108%; at M2 (setting [4]) it was 104%; at AT1 (setting [1]), 110%; on AT1 (setting [4]) it was 112%. Besides, the inhibition at 0.1 µM at M2 (setting [2]) was -8%; on AT1 (setting [2]), -10%. Besides, the “% Of control specific binding” value on M2 (setting [3]) was 111.1%; on AT1 (setting [3]), 108.6%. This compound showed a 50% effective concentration (EC50) at human GPR17 (membranes of 1321N1 cells transfected with human GPR17, mean ± SEM of 3 experiments) of 0.64 ± 0.12 nM. At human GPR17 (standard LTD4 50 nM set to 100% († compounds)), the “% Emax (ratio vs Emax of the standard)” value was 88.5 ^** %. For the same compound, the “Emax (% vs basal)” value on human GPR17 (vs basal, mean ± SEM) is on record as 127.8 ± 3.0%. The “Myelination Index” value in the experiment with OPC-DRG co-cultures was found to be 155.0 ± 12.08%.
